From paper PMC7601397, “Discovery of Sulforaphane as a Potent BACE1 Inhibitor Based on Kinetics and Computational Studies” (Nutrients, 2020)

Molecular target: BACE1 (Homo sapiens, UniProt P56817)
Assay: FRET enzyme assay (kit); Dixon and Lineweaver-Burk kinetics
Assay type: biochemical

BACE1, sequence (P56817 46-457): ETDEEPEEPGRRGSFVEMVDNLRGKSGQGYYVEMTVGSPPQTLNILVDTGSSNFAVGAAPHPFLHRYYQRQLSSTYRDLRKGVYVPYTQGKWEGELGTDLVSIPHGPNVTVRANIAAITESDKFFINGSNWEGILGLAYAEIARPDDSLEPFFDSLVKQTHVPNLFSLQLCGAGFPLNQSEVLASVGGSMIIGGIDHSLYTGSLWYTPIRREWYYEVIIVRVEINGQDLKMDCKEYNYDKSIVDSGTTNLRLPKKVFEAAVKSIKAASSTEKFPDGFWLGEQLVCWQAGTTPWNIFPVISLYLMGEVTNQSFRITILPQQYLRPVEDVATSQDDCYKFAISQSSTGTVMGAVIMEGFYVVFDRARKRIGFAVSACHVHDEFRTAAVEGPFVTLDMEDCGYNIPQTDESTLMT

`C[S+]([O-])CCCCN=C=S` (stereo not shown) [Sulforaphane] was tested. Which Ki did it give?
The Ki was 3.1 µM.
